The record followed here is ChEMBL document CHEMBL1158429, “Selective cytochrome P450 3A4 inhibitory activity of Amaryllidaceae alkaloids” (Bioorg Med Chem Lett, 2009).

The series concerns the target Cytochrome P450 3A4 (Homo sapiens, UniProt P08684). The series can be described thus: Inhibition of human CYP3A4 assessed as biotransformation of 7-benzyloxyquinoline. The format is ADME.

Sequence of Cytochrome P450 3A4 (P08684 whole entry): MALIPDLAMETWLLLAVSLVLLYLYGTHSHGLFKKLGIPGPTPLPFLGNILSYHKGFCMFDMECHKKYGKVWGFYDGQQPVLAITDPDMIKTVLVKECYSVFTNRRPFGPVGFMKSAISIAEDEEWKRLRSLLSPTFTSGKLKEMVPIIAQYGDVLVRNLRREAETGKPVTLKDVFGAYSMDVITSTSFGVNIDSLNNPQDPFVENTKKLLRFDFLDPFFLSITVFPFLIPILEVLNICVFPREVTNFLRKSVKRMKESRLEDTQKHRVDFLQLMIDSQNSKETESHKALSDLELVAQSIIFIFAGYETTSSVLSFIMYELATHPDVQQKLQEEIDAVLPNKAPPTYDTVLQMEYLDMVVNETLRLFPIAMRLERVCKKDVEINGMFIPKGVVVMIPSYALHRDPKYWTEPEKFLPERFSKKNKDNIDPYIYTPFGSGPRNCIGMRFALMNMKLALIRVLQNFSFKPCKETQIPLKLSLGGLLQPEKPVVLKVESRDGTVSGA

For `CC(=O)O[C@H]1[C@H]2c3cc4c(cc3CN3CCC(=C[C@@H]1O)[C@H]23)OCO4`, the Ki (read-out: Ki) was found to be 7.6 µM.

Regarding `CC(=O)O[C@H]1[C@H]2c3cc4c(cc3CN3CCC(=C[C@@H]1OC(C)=O)[C@H]23)OCO4`, the Ki (read-out: Ki) is 11 µM.

As for `CC(C)(C)[Si](C)(C)O[C@H]1C=C2CCN3Cc4cc5c(cc4[C@H]([C@@H]1O)[C@@H]23)OCO5`, the Ki (read-out: Ki) stood at 0.26 µM.

As for `CC(=O)O[C@H]1[C@H]2c3cc4c(cc3CN3CCC(=C[C@@H]1O[Si](C)(C)C(C)(C)C)[C@H]23)OCO4`, the Ki (read-out: Ki) came out at 0.21 µM and the Ki (read-out: pKi (converted)) is 0.158 µM.

`O[C@H]1[C@H]2c3cc4c(cc3CN3CCC(=C[C@@H]1O)[C@H]23)OCO4` [LYCORINE]: the Ki entry is “Not Active”.

As to `O=C1N[C@@H]2C(=C[C@H](O)[C@@H](O)[C@H]2O)c2cc3c(c(O)c21)OCO3` [NARCICLASINE], the Ki (read-out: Ki) was determined as 0.63 µM.

In the case of `O=C1N[C@H]2[C@H](O)[C@H](O)[C@@H](O)[C@H](O)[C@@H]2c2cc3c(c(O)c21)OCO3` [PANCRATISTATIN], the Ki entry is given as “Not Active”.
